Results from ChEMBL document CHEMBL1201862, “PubChem BioAssay data set” (2004).
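The compound was tested at five concentrations on cells cultured in 96-well plates, with a 48-hour exposure period. The concentration for 50% growth inhibition is given as GI50.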 Activity calls are given as the source filed them. Cut-off read from the data, not from the text of the source: active = GI50 up to about 1.1 µM and inactive = higher.

Columns and labels:
Assay in all cases: growth of human tumour cells (NCI), 48 h
HOP-92 = system: HOP-92
BT-549 = system: BT-549
LOX IMVI = system: LOX IMVI
UO-31 = system: UO-31
Hs-578T = system: Hs-578T
ACHN = system: ACHN
NCI-H226 = system: NCI-H226
HT-29 = system: HT-29
M14 = system: M14
HCC 2998 = system: HCC 2998
SW-620 = system: SW-620
HCT-15 = system: HCT-15
TK-10 = system: TK-10
SN12C = system: SN12C
NCI/ADR-RES = system: NCI/ADR-RES
SK-MEL-28 = system: SK-MEL-28
SK-MEL-5 = system: SK-MEL-5
OVCAR-8 = system: OVCAR-8
SNB-75 = system: SNB-75
PC-3 = system: PC-3
SNB-19 = system: SNB-19
DU-145 = system: DU-145
RXF 393 = system: RXF 393
A498 = system: A498
HCT-116 = system: HCT-116
OVCAR-5 = system: OVCAR-5
A549 = system: A549
MCF7 = system: MCF7
SF-295 = system: SF-295
U-251 = system: U-251
MOLT-4 = system: MOLT-4
MDA-MB-435 = system: MDA-MB-435
RPMI-8226 = system: RPMI-8226
K562 = system: K562
SK-OV-3 = system: SK-OV-3
EKVX = system: EKVX
OVCAR-3 = system: OVCAR-3
CCRF-CEM = system: CCRF-CEM
CAKI-1 = system: CAKI-1
MDA-MB-231 = system: MDA-MB-231
KM12 = system: KM12
Malme-3M = system: Malme-3M
NCI-H23 = system: NCI-H23
SF-268 = system: SF-268
HOP-62 = system: HOP-62
UACC-257 = system: UACC-257
NCI-H460 = system: NCI-H460
UACC-62 = system: UACC-62
MDA-N = system: MDA-N
T47D = system: T47D
COLO 205 = system: COLO 205
SK-MEL-2 = system: SK-MEL-2
SR = system: SR
OVCAR-4 = system: OVCAR-4
786-0 = system: 786-0
NCI-H522 = system: NCI-H522
SF-539 = system: SF-539
HL-60 = system: HL-60
IGROV-1 = system: IGROV-1

COc1ccccc1N1C(=O)CC(=O)N(C(=O)CCCCCCCCC(=O)N2C(=O)CC(=O)N(c3ccccc3OC)C2=S)C1=S
GI50 (HOP-92): 59.2 µM (inactive)
GI50 (BT-549): 55.3 µM (inactive)
GI50 (LOX IMVI): 95.3 µM (inactive)
GI50 (UO-31): 45.9 µM (inactive)
GI50 (Hs-578T): 69 µM (inactive)
GI50 (ACHN): > 100 µM (inactive)
GI50 (NCI-H226): > 100 µM (inactive)
GI50 (HT-29): 49.4 µM (inactive)
GI50 (M14): 69.7 µM (inactive)
GI50 (HCC 2998): > 100 µM (inactive)
GI50 (SW-620): > 100 µM (inactive)
GI50 (HCT-15): 96.4 µM
GI50 (TK-10): > 100 µM (inactive)
GI50 (SN12C): > 100 µM (inactive)
GI50 (NCI/ADR-RES): 91.6 µM (inactive)
GI50 (SK-MEL-28): > 100 µM (inactive)
GI50 (SK-MEL-5): 52 µM (inactive)
GI50 (OVCAR-8): 63.2 µM (inactive)
GI50 (SNB-75): > 100 µM (inactive)
GI50 (PC-3): 62.5 µM (inactive)
GI50 (SNB-19): 74.1 µM (inactive)
GI50 (DU-145): > 100 µM (inactive)
GI50 (RXF 393): 99.3 µM (inactive)
GI50 (A498): > 100 µM (inactive)
GI50 (HCT-116): 56.9 µM (inactive)
GI50 (OVCAR-5): > 100 µM (inactive)
GI50 (A549): 53.7 µM (inactive)
GI50 (MCF7): 44.2 µM (inactive)
GI50 (SF-295): > 100 µM (inactive)
GI50 (U-251): 70 µM (inactive)
GI50 (MOLT-4): 35.1 µM (inactive)
GI50 (MDA-MB-435): > 100 µM (inactive)
GI50 (RPMI-8226): 35.7 µM (inactive)
GI50 (K562): 38.1 µM (inactive)
GI50 (SK-OV-3): > 100 µM (inactive)
GI50 (EKVX): 51.8 µM (inactive)
GI50 (OVCAR-3): 55.2 µM (inactive)
GI50 (CCRF-CEM): 27.3 µM (inactive)
GI50 (CAKI-1): > 100 µM (inactive)
GI50 (MDA-MB-231): 43.7 µM (inactive)
GI50 (KM12): 53.8 µM (inactive)
GI50 (Malme-3M): > 100 µM (inactive)
GI50 (NCI-H23): 53.6 µM (inactive)
GI50 (SF-268): > 100 µM (inactive)
GI50 (HOP-62): > 100 µM (inactive)
GI50 (UACC-257): > 100 µM (inactive)
GI50 (NCI-H460): 83.9 µM (inactive)
GI50 (UACC-62): 41.8 µM (inactive)
GI50 (MDA-N): 67.3 µM (inactive)
GI50 (T47D): 87.3 µM (inactive)
GI50 (COLO 205): > 100 µM (inactive)
GI50 (SK-MEL-2): > 100 µM (inactive)
GI50 (SR): 28.4 µM (inactive)
GI50 (OVCAR-4): 73.1 µM (inactive)
GI50 (786-0): > 100 µM (inactive)
GI50 (NCI-H522): 47.3 µM (inactive)
GI50 (SF-539): > 100 µM (inactive)

S=C1SCN(C2CCCCCCCCCCC2)CN1C1CCCCCCCCCCC1
GI50 (HOP-92): > 100 µM (inactive)
GI50 (BT-549): > 100 µM (inactive)
GI50 (LOX IMVI): > 100 µM (inactive)
GI50 (UO-31): > 100 µM (inactive)
GI50 (Hs-578T): > 100 µM (inactive)
GI50 (ACHN): > 100 µM (inactive)
GI50 (NCI-H226): > 100 µM (inactive)
GI50 (HT-29): > 100 µM (inactive)
GI50 (M14): > 100 µM (inactive)
GI50 (SW-620): > 100 µM (inactive)
GI50 (HCT-15): > 100 µM
GI50 (TK-10): > 100 µM (inactive)
GI50 (SN12C): > 100 µM (inactive)
GI50 (NCI/ADR-RES): > 100 µM (inactive)
GI50 (SK-MEL-28): > 100 µM (inactive)
GI50 (SK-MEL-5): > 100 µM (inactive)
GI50 (OVCAR-8): > 100 µM (inactive)
GI50 (SNB-75): > 100 µM (inactive)
GI50 (PC-3): > 100 µM (inactive)
GI50 (SNB-19): > 100 µM (inactive)
GI50 (DU-145): > 100 µM (inactive)
GI50 (RXF 393): > 100 µM (inactive)
GI50 (A498): > 100 µM (inactive)
GI50 (HCT-116): > 100 µM (inactive)
GI50 (OVCAR-5): > 100 µM (inactive)
GI50 (A549): > 100 µM (inactive)
GI50 (MCF7): 66.8 µM (inactive)
GI50 (SF-295): > 100 µM (inactive)
GI50 (U-251): > 100 µM (inactive)
GI50 (MOLT-4): 46.1 µM (inactive)
GI50 (MDA-MB-435): 42.2 µM (inactive)
GI50 (RPMI-8226): 47.5 µM (inactive)
GI50 (K562): > 100 µM (inactive)
GI50 (SK-OV-3): > 100 µM (inactive)
GI50 (EKVX): > 100 µM (inactive)
GI50 (HL-60): 38.2 µM (inactive)
GI50 (OVCAR-3): 34.7 µM (inactive)
GI50 (CCRF-CEM): 34.4 µM (inactive)
GI50 (CAKI-1): > 100 µM (inactive)
GI50 (MDA-MB-231): > 100 µM (inactive)
GI50 (KM12): > 100 µM (inactive)
GI50 (Malme-3M): > 100 µM (inactive)
GI50 (NCI-H23): > 100 µM (inactive)
GI50 (SF-268): > 100 µM (inactive)
GI50 (HOP-62): 67.6 µM (inactive)
GI50 (UACC-257): > 100 µM (inactive)
GI50 (NCI-H460): > 100 µM (inactive)
GI50 (UACC-62): 97.9 µM (inactive)
GI50 (MDA-N): > 100 µM (inactive)
GI50 (T47D): > 100 µM (inactive)
GI50 (COLO 205): > 100 µM (inactive)
GI50 (IGROV-1): > 100 µM (inactive)
GI50 (SK-MEL-2): > 100 µM (inactive)
GI50 (SR): 71.6 µM (inactive)
GI50 (OVCAR-4): 86.7 µM (inactive)
GI50 (786-0): > 100 µM (inactive)
GI50 (NCI-H522): 67.5 µM (inactive)
GI50 (SF-539): > 100 µM (inactive)
